Source: PMC11960969, “Mdga2 deficiency leads to an aberrant activation of BDNF/TrkB signaling that underlies autism-relevant synaptic and behavioral changes in mice” (PLOS Biology, 2025)

Tests used:
mice [1] = assay: Three-chamber test (sociability and social novelty); assay type: in vivo, mouse
Protocol: (§1) Six- to eight-week-old male mice were subjected to various behavioral tests. Mice were allowed to acclimatize in the testing room for 1 h prior to each test. Data were recorded and analyzed using Smart 3.0 video tracking system (Panlab, Harvard Apparatus).
This test was performed as described previously with minor modifications. The apparatus (60 W × 40 D × 22 H cm) has two transparent partitions separating the left, the middle, and the right chambers (20 × 40 cm each), and each partition has a small opening (5 × 5 cm) for access to each chamber. A fixed wire cylinder (8.5 cm diameter) was placed in each of the left and the right chambers. This test consisted of three phases: habituation, sociability test, and social novelty test. During habituation, both left and right cylinders were empty, and tested mice were placed in the center and allowed to explore freely for 10 min. During the sociability test, a gender-matched strange mouse (S1) was enclosed in one empty cylinder, and mice were allowed to freely explore for 10 min. Their time spent sniffing S1 or the other empty cylinder (E) was measured and the sociability preference index (T(S1 − -E)/T(S1 + E): time spent sniffing S1 minus time spent sniffing E over time spent sniffing both S1 and E) was calculated for comparison. During the social novelty test, another gender-matched unfamiliar mouse (S2) was placed into the empty cylinder and mice were allowed to freely explore for another 10 min. Their time spent sniffing S1 or S2 was measured and the social novelty preference index (T(S2 − S1)/T(S2 + S1): time spent sniffing S2 minus time spent sniffing S1 over time spent sniffing both S2 and S1) was calculated for comparison.

[2] = system: AMPAR and NMDAR (evoked EPSCs); assay: Evoked AMPAR- and NMDAR-mediated EPSCs and AMPAR/NMDAR ratio in hippocampal slices; parameters: species or system mouse
TrkB signaling = assay: Time course of TrkB signaling inhibition in cerebrum after i.p. ANA-12 (immunoblotting); assay type: in vivo, mouse; details: 0.5 mg/kg i.p., WT and Mdga2-/- mice, S4A Fig
Protocol: Equal protein amounts of total lysates from cells or mouse tissues were subjected to SDS-PAGE and immunoblotted with antibodies indicated. For Co-IP, 1 mg of protein lysates were incubated with antibodies indicated and Protein G Agarose (ThermoFisher, Cat# 20399) beads at 4 °C overnight, and immunoprecipitated proteins were then subjected to SDS-PAGE and immunoblotting. Uncropped immunoblotting images are shown in S1 Raw Images.
ANA-12 was dissolved in saline containing 10% DMSO to a final concentration of 0.5 mg/kg and intraperitoneally administered into male mice. For chronic treatment, ANA-12 was administered to 3-week-old male mice at twice/week for 3 weeks until mice reached 6 weeks of age. […]
Supplementary file pbio.3003047.s004.tif: S4 Fig Acute ANA-12 treatment temporarily rescues social deficits in Mdga2 ^+/− mice. […] (C–G) Mice were analyzed for their total travel distance in the open field test (C), their discrimination index in the novel location recognition test (D), their time spent self-grooming and bouts of self-grooming (E), their sniffing time in the social affiliation test (F), and their sociability and social novelty preferences in the three-chamber test (G). n = 15 mice per group. […] P-values were determined by two-way ANOVA with Tukey’s multiple comparisons test. ns: not significant, *p < 0.05, **p < 0.01, ***p < 0.001, ns: not significant. […]

mice [3] = assay: Social affiliation test; assay type: in vivo, mouse; details: Mdga2+/- mice
Protocol: as §1
The test procedure was similar to that described previously. Briefly, a cylinder (8.5 cm in diameter) with a gender-matched reference mouse confined was placed at a specific location in an open field (40 cm in diameter). Tested mice were allowed to move freely in the open field for 7 min and their sniffing time with the reference mice was analyzed.

O=C(Nc1ccccc1C(=O)NC1CCCCNC1=O)c1cc2ccccc2s1 (stereo not drawn) [ANA-12, reference compound]
impaired sociability and social novelty deficits (three-chamber) (mice [1]; AAV-Mdga2 shRNA mice, ANA-12 0.5 mg/kg i.p. twice per week 3 weeks, n = 10, Fig 6D): rescued impaired sociability and social novelty deficits
sociability preference (mice [1]; Mdga2+/- mice, acute 0.5 mg/kg i.p. 3 days, acute Test 1: Interaction F(1,56) = 9.336, p = 0.0034): significantly higher sociability preference when compared to controls in acute Test 1
impaired sociability and social novelty (mice [1]; Mdga2+/- mice, chronic 0.5 mg/kg i.p., chronic Test 1, sociability F(1,56) = 13.52, p = 0.0005, novelty F(1,56) = 3.144, p = 0.0817): significantly improved impaired sociability and social novelty
impaired sociability (mice [1]; Mdga2+/- mice, chronic 0.5 mg/kg i.p., chronic Test 2, Interaction F(1,56) = 7.339, p = 0.0089): significantly improved impaired sociability in Mdga2^ +/− mice in chronic Test 2
elevated AMPAR/NMDAR response ratios [2]: effectively attenuated upon chronic ANA-12 treatment
elevated evoked AMPAR-mediated EPSCs ([2]; Mdga2+/- mice, chronic 0.5 mg/kg i.p., n = 20-21 cells from 3 mice, Fig 5J): effectively attenuated upon chronic ANA-12 treatment
time of main TrkB signaling inhibition after treatment (TrkB signaling): 16 to 24 h
social preference (social affiliation) (mice [3]; acute 0.5 mg/kg i.p. 3 days, acute Test 1 (1 day): Interaction F(1,56) = 7.214, p = 0.0095): significantly higher social preference compared to controls in acute Test 1
impaired social affiliation (mice [3]; chronic 0.5 mg/kg i.p., Test 1 (1 week) Interaction F(1,56) = 10.07, p = 0.0024, Test 2 (5 weeks) F(1,56) = 4.906, p = 0.0309): significantly improved impaired social affiliation in Mdga2^ +/− mice in both chronic Test 1 and chronic Test 2
